Measurements published in patent US11986466B2, “Methods of treating solid tumors with CCR2 antagonists” (CHEMOCENTRYX, INC., priority 2018, dated 2024).
Entries after “also recorded” stand apart in the source; their conditions may differ.

Experiments:
MBL2 tumors [1] = experiment: Cervical draining lymph node size (lymph node metastasis) in DNFB-MBL2 model; format: in vivo, C57BL/6 mice; details: day 15, Compound 1 alone
Procedure: (§1) FIG. 7A-E. CD8 T cells are compulsory in CCR2 antagonist-mediated anti-tumor immunity. (A) Tumor tissues were collected from mice euthanized after two weeks of treatment. Groups are as indicated in the graph. IHC staining with CD8a antibody was performed. The numbers of CD8 positive T cells were counted by taking three random images of HPF (high power field) in each section from all four mice per group. (B) Scheme for neutralizing CD8 T cells along with Compound 1 treatment. Neutralizing anti-CD8 or rat-IgG2a was administrated via intraperitoneal injection one day before MBL2 tumor inoculation followed by a second dose after 7 days. Tumor formation was examined in two weeks after the treatment with Compound 1 or vehicle. (C) Mice treated in experiment (B) were euthanized on day 3 for flow analysis of the cervical draining lymph nodes in order to determine the effect of CD8 depletion (three mice per group). (D) Mice were euthanized on day 15 after the two weeks of Compound 1/vehicle treatment with or without CD8 T cell neutralization. Ear thickness is measured for presenting tumor size. (E) Draining lymph nodes are also measured for the lymph node metastasis (n=4).
Next, we administrated neutralizing CD8 antibodies by IP injection concurrently with the Compound 1 treatment (FIG. 7B). […]

F4/80+ macrophages = experiment: IHC staining of ear tissue with anti-F4/80; format: in vivo, C57BL/6 mice; details: day 7, 60 mg/kg oral daily
Procedure: (§2) FIG. 4A-D. Enhanced inflammation is associated with CCR2 antagonism by Compound 1 in the tumor microenvironment. (A, B) Ear tissues were collected from mice treated by Compound 1 (60 mg/kg) or vehicle on day 7. Representative images for HE sections and IHC staining with anti-F4/80 were shown for the ear tissues from Compound 1 and vehicle treated group. (C, D) Ears from day 7 were also analyzed by flow cytometry to quantify the numbers of the two major myeloid subpopulations in TME with antibodies for CD11b, F4/80 and Ly6G.
(§3) H&E and Histoimmunochemistry. After mouse ear tumors were surgically removed at the ear base, the ear sample was cut into two parts along the long axis and placed in RNA later for RNA extraction or into 10% formalin for hematoxylin and eosin (H&E) staining or immunohistochemical staining with purified mouse antibodies (anti-CD8 and anti-F4/80 from Biolegend, San Diego, CA).

MBL2 tumors [2] = experiment: MBL2/DNFB mouse ear skin T cell lymphoma model: tumor growth (ear thickness, ear weight); format: in vivo, C57BL/6 mice
Procedure: Animals and cell lines. Female C57BL/6 mice (6-8 weeks old) were purchased from Charles River (Hollister, CA) and housed in animal facilities at University of California Davis (UCDAVIS), Sacramento, CA All animal experiments were conducted in accordance with the guidelines and approval of the Institutional Animal Care and Usage Committee at UCDAVIS. The MBL2 cell line is an established cell line derived from Moloney MuLV-induced T-cell lymphoma in C57BL/6 mice, in which the gag gene was deleted from the genome in order to lower virus-dependent immunogenicity. MBL2 cells were cultured in DMEM (Invitrogen, Carlsbad, CA) with 10% heat-inactivated FBS.
Establishment of MBL2 tumors in mice. The method of establishing mouse ear skin tumors was previously described, Briefly, PBS-washed MBL2 cells (4×10^5 in 20 μl PBS) were injected into the dermal space under the central dorsal surface of the ears and above the cartilage plane using a 28 g needle. Mice were then topically treated one time with DNFB (1-Fluoro-2, 4-dinitrobenzene, 0.5% in a vehicle consisting of 4:1 (v/v) acetone and olive oil, 10 μl/ear) (Sigma, St. Louis, CA) on dorsal ear skins. Tumor growth was assessed for maximum ear thickness using a digital caliper, or by weight for the whole tumor-bearing ears removed from ear baseline. The endpoint determination is based on the allowed maximal ear tumor size, or local erosion and bleeding, which usually occurred within two weeks after implantation.
Tumor treatment by CCR2 antagonist and/or anti-PD1. Small molecule compounds, Compound 1, either in a high concentration (6 mg/ml) or a low concentration (2 mg/ml), as well as vehicle control were all provided by ChemoCentryx (Mountain View, CA) in a lab-ready formulation. In therapeutic application, oral administration through gavage of Compound 1 or vehicle started on the same day of MBL2 cell inoculation, usually two hours apart. Compound 1 was administrated once a day (60 mg/kg for high dose or 20 mg/kg for low dose) for up to two weeks following tumor implantation. […]

[3] = Plasma concentration of Compound 1 after daily oral dosing; format: in vivo, mice
Procedure: (§4) (A) Mice were orally dosed for Compound 1 daily at a lower concentration (20 mg/kg per day) or a higher concentration (60 mg/kg per day) for consecutive ten days. Plasma concentration of Compound 1 was detected by chemistry analyst 24 hours after the last dosing. (B) The same groups of mice in panel (A) were recorded for body weight before the first and after the last oral administration (n=4 per group). Statistical analysis is performed by two-way ANOVA in GraphPad PRISM (GraphPad Software, San Diego, CA).
(§5) Compound 1 is an orally-bioavailable CCR2 antagonist. […] For the experimental treatment regimen, we administered Compound 1 daily via oral gavage, starting on the same day of tumor implantation (FIG. 1a). […] Thus, Compound 1 blocked tumor growth in an inflammation and macrophages dependent model of T cell lymphoma.

[4] = system: CD11b+/F4/80+ macrophages; experiment: Flow cytometry of macrophages in ear tumor microenvironment; format: in vivo, C57BL/6 mice
Text: (§6) FIG. 3A-D. Compound 1 specifically targets macrophages, but not neutrophils. (A, B) Macrophages, defined by the CD11b+/F4/80+ cell populations in flow analysis, were presented in either percentage or absolute numbers in ear TME after only two daily doses of Compound 1 (dosages are indicated in the figure, * p<05, ** p<01 vs vehicle control). (C, D) Single cell suspension from the same tissues as in (A) were stained with antibodies for CD11b, F4/80, CCR2, Ly6G, and Ly6C. Cells gated on CD11b were further analyzed to differentiate the subpopulations. Solid circles indicate the cells which are targeted by Compound 1. Dotted circles circles indicate the cells which are not blocked by Compound 1.
(§7) Flow cytometry for mouse ear tissues, lymph nodes, and spleens. Anti-mouse CD45 (clone 30-F11), CD11b (M1/70), F4/80 (BM8), Ly6G (1A8), Ly6C (HK1.4), IFN-γ (XMG1.2) and CD8 (5H10-1) Abs were purchased from BioLegend (San Diego, CA). Ears or tumor tissues were digested to obtain skin cell suspensions as described, Lymph nodes or spleens were directly minced and filtered through cell strainers with 100 μm micron pores (Thermo Fisher Scientific, Waltham, MA). Red blood cells in the spleen samples were removed by RBC lysis buffer (BioLegend). Intracellular staining was done after incubating cells for 4 h with brefeldin A and PMA/ionomycin as described. Flow cytometry was performed using an Acuri C6 or LSR II (BD Biosciences, San Jose, CA) in conjunction with FlowJo analysis software (Tree Star, San Carlos, CA).

[5] = system: neutrophil-like cells (CD11b- and Ly6G-positive cells); experiment: Flow cytometry of neutrophils / neutrophil-like cells in ear tumor microenvironment; format: in vivo, C57BL/6 mice
Text: as §6, §2, §7

[6] = Body weight and tolerability after daily oral dosing; format: in vivo, mice; details: 20 or 60 mg/kg daily oral
Procedure: as §4, §5

CD8+ T cells = experiment: IHC staining of tumor tissue with CD8a antibody; format: in vivo, C57BL/6 mice; details: two weeks of treatment, dose-dependent, vs untreated and vehicle
Procedure: as §1
H&E and Histoimmunochemistry. […]

[7] = H&E histology and appearance of tumor-bearing ears; format: in vivo, C57BL/6 mice; details: day 7, 60 mg/kg
Procedure: as §2, §3

[8] = system: cytokines and biomarkers produced from the TME; experiment: Quantitative RT-PCR of cytokines and biomarkers in ear tissues; format: in vivo, C57BL/6 mice
Procedure: FIG. 5A-C. Compound 1 treatment altered the expression of cytokines and biomarkers produced from the TME. Quantitative RT-PCR was performed for the ear tissues collected on day 7. Genes that are involved in cancer inflammation and immunity crosstalk are selectively detected. Comparative expression is performed between the Compound 1 and vehicle treated groups. […] Gene expression values are normalized to endogenous expression of GAPDH (* p<05, ** p<0.01; n=3 mice per group).
FIG. 6. Compound 1 treatment altered the expression of cytokines and biomarkers produced from the TME. Quantitative RT-PCR was performed for the ear tissues collected on day 7. Genes that are involved in immune suppression and anti-inflammation are selectively detected. Comparative expression is performed between the Compound 1 and vehicle treated groups. Gene expression values are normalized to endogenous expression of GAPDH (n=3 mice per group).
Quantitative real-time PCR. RNA (<2 μg per sample) was converted into cDNA with the high-capacity first-strand cDNA Kit (Qiagen). Real-time PCR was performed on a StepOne Plus Real-time PCR system (Applied Biosystem, Carlsbad, CA). QPCR primer pairs were purchased from Integrated DNA technologies (Coralville, Iowa).

[9] = system: pancreatic ductal adenocarcinoma (PDAC); details: orally dosed, phase 1b study; cited from earlier work
[10] = day 15, 20 or 60 mg/kg oral daily, vs untreated or vehicle
[11] = ear tumors, treated two days after tumor implantation, 20 or 60 mg/kg oral
[12] = day 7, vs vehicle, normalized to GAPDH

C[C@H]1CN([C@@H]2CC[C@@](C(=O)N3COc4c(cc(C(F)(F)F)cc4C(F)(F)F)C3)(C3CC3)OC2)CC[C@@H]1c1cccc(C(=O)O)c1 [Compound 1]
cervical draining lymph node size (MBL2 tumors [1]): reduction of cervical LN size | macrophages in the TME by IHC anti-F4/80 (F4/80+ macrophages): largely absent | ear thickness (MBL2 tumors [2]; [10]): significantly reduced | ear weight (MBL2 tumors [2]; [10]): significantly reduced | tumor growth / tumor size (MBL2 tumors [2]; single agent, two weeks of treatment, vs vehicle/control): smaller and sometimes nearly eradicated; also recorded: visible reduction in tumor growth; also recorded: inhibits tumor growth; also recorded: effectively delay the tumor growth, but was unable to eliminate the tumors | plasma concentration ([3]; 20 or 60 mg/kg daily oral gavage for ten days, 24 hours after last dosing): correlated well to the feeding doses; also recorded: dose-dependently absorptive | oral bioavailability ([3]; oral): orally-bioavailable | CD11b+/F4/80+ macrophages, absolute numbers in whole ears [4, 11]: significantly decreased | CD11b+/F4/80+ macrophages, percentage values of live cells [4, 11]: significantly decreased | macrophages in the skin (flow cytometry) ([4]; oral administration for two days after tumor initiation, vehicle 17.7%): 2.78 % of total leukocytes | accumulation of neutrophils in the TME ([5]; after two daily doses): not blocked | relative abundance of neutrophils in the TME ([5]; after two daily doses): increased | numbers of neutrophils / neutrophil-like cells in the TME ([5]; one week (day 7) of treatment, 60 mg/kg oral daily, vs vehicle, 60 mg/kg): significantly larger numbers of neutrophils; also recorded: significant increase | tolerability / side effects [6]: well tolerated; also recorded: without side effects | weight changes ([6]; ten days): ≤ 20% | numbers of CD8+ T cells in the tumor/TME (IHC) (CD8+ T cells): significantly larger numbers of CD8+ T cells; also recorded: markedly increased | tumor cell necrosis [7]: results in tumor cell necrosis | IL-10 expression in ears ([8]; day 7, vs controls): similarly expressed | TGF-beta expression in ears ([8]; day 7, vs controls): similarly expressed | CCL2 expression in the TME ([8]; day 7, vs vehicle): Upregulation | CCL7 expression in the TME ([8]; day 7, vs vehicle): Upregulation | CXCL1/2 expression in the TME ([8]; day 7, vs vehicle): noticeably increased | IL-1beta expression in ears ([8]; day 7, vs vehicle): upregulated to variable extents | IL-6 expression in ears ([8]; day 7, vs vehicle): upregulated to variable extents | IL-12 expression in ears ([8]; day 7, vs vehicle): found to increase | IL-17a expression in ears ([8]; day 7, vs vehicle): upregulated to variable extents | S100A8/9 expression in the TME ([8]; day 7, vs vehicle): noticeably increased | granzyme B expression in ears ([8]; day 7, vs vehicle): consistent upregulation | CXCL10 mRNA level in ears [8, 12]: significantly increased | CXCL11 mRNA level in ears [8, 12]: significantly increased | IFN-γ mRNA level in ears [8, 12]: significantly increased

O=C(NCC(=O)N1CC[C@H](N[C@H]2CC[C@@](O)(c3ccc(-c4ncccn4)cn3)CC2)C1)c1cccc(C(F)(F)F)c1 [PF-04136309]
TAM infiltration [9]: reduction in TAM infiltration | anti-tumor immune response [9]: endogenous anti-tumor immune response
